Data taken from patent US20170042916A1, “ANIMAL TISSUE COLONIZATION AND TREATMENT OF INFECTION” (priority 2014, published 2017).

Legend:
[1] = system: mixed bacterial/fungal infectious otitis externa and infectious dermatitis; assay: Example 1: treatment of otitis externa and dermatitis in a Shih Tzu dog; type: in vivo; details: oral, four weeks, before treatment with the composition
Source text: Conner's chest, neck, paws, and face were cleaned and treated twice daily with antimicrobial wipes (Douxo Chlorhexiding pads®) and an antimicrobial lotion (ResiKetoChlor®). The ears were cleaned once daily with a tris-EDTA/ketoconazole solution (TrizUltra plus Keto®) and treated twice daily with an amikacin otic preparation.
The animal had generalized mixed hypotrichosis/alopecia, erythema, hyperpigmentation, and lichenification with crusting over dorsal trunk, legs, paws, and ventrum. Hair on the face and neck was severely matted. The skin underlying the mats was crusted, with moist dermatitis and brown purulent exudate. Lymph node enlargement was palpated in the mandibular, prescapular, and popliteal node groups.
A generalized severe Malassezia (yeast) dermatitis was concentrated mostly on ventrum and paws. […] Fine-needle aspirates of peripheral lymph nodes (left prescapular and left popliteal) were consistent with reactive lymphadenopathy.
The otitis externa was treated initially by cleaning the ears with a salicylic acid based ear cleaner (Otoclean®) and instillation of 0.5 ml of the disclosed composition comprising Trihydroxy in each ear. Mats were removed and the dog was bathed and groomed over two days using (Splash plus® shampoo), followed by antimicrobial shampoo (Douxo Chlorhexidine® shampoo), followed by essential fatty acid cream rinse (Hylyt® cream rinse). […]

Stability in water = type: physicochemical
Source text: 3-(trimethoxysilyl) propyldimethyloctadecyl ammonium chloride (hereinafter also referred to as “Trimethoxy”) 104, is illustrated in FIG. 2 only as a precursor to the Trihydroxy molecule, when hydrolyzed by addition to water, shown in FIG. 1. […] Conventional methods of use of Trimethoxy 104 includes addition of a dilute solution in methanol to water. The EPA label required for Trimethoxy compounds states: “Danger. Corrosive. Causes irreversible eye damage and skin burns. Methanol may cause blindness. May be fatal if inhaled. May be harmful if swallowed or absorbed through the skin.”
The compound must then be used within a short period of time, such as a few hours to at most 12 hours, to treat a surface or fabric to produce a permanent surface coating.

Row | Compound | outcome of earlier conventional therapy [1] | stability in water (Stability in water)
1 | amoxicillin/clavulanate | failed | 
2 | CCCCCCCCCCCCCCCCCC[N+](C)(C)CCC[Si](O)(O)O.[Cl-] [Trihydroxy, 3-(trihydroxysilyl) propyldimethyloctadecyl ammonium chloride] |  | stable with no other additives in water
3 | OC(Cn1cncn1)(Cn1cncn1)c1ccc(F)cc1F [fluconazole] | failed | 
4 | CCCCCCCCCCCCCCCCCC[N+](C)(C)CCC[Si](OC)(OC)OC.[Cl-] [Trimethoxy, 3-(trimethoxysilyl) propyldimethyloctadecyl ammonium chloride] |  | unstable in water
